{"source": "patent US11807634B2", "about": "“Cyclopropyl dihydroquinoline sulfonamide compounds” (AMGEN INC., priority 2020, dated 2023)", "data": [{"system": "CYP3A4", "experiment": "Human CYP 3A4 induction assay (mRNA, cryopreserved human hepatocytes)", "format": "in vitro ADME", "settings": "human hepatocytes, 10 uM test compound, 72 hours, mRNA, percent of control (rifampin positive control)", "procedure": "Human CYP 3A4 Induction Assay\nCryopreserved human hepatocytes were seeded in 96-well collagen coated plates at 70,000 cells per well in hepatocyte plating media (HPM, final concentrations: 1× Dulbecco's Modified Eagle's Medium, 0.1 μM dexamethasone, 10% fetal bovine serum, 1× ITS, 1×PSG) followed by incubation at 37° C. under 5% CO2 and 90% relative humidity for 2 days to allow hepatocytes to form a confluent layer. On Day 3, hepatocytes were treated with either test compound or rifampin (20 μM, positive control for CYP3A induction) prepared in hepatocyte incubation media ((HIM, final concentrations: 1× William's Medium E, 0.1 μM dexamethasone, 1×ITS, 1×PSG). Treatment was performed for 72 hours with either 2 concentrations (2 μM or 10 μM) or a range of concentrations (0.001 μM to 100 μM) of the test compound to obtain full dose-response curve. Fresh media containing the relevant concentrations of the test compound was replaced every day until the samples were processed. After 72 hours of incubation, samples were processed for mRNA analysis using bDNA technology using manufacturer's instructions (Affymetrix, Fremont, Calif.). Cell viability was tested at the end of the experiment using MTT assay kit (Roche Diagnostics, Basel, Switzerland). Data was analyzed and presented as percent of control (POC) and Emax and EC50 obtained when appropriate according to guidance from Center for Drug Evaluation and Research (CDER), 2006, Guidance for Industry, Drug Interaction Studies—Study Design, Data Analysis, and Implications for Dosing and Labeling.\nCryopreserved human hepatocytes were seeded in 96-well collagen coated plates at 70,000 cells per well in hepatocyte plating media (HPM, final concentrations: 1× Dulbecco's Modified Eagle's Medium, 0.1 μM dexamethasone, 10% fetal bovine serum, 1×ITS, 1×PSG) followed by incubation at 37° C. under 5% CO2 and 90% relative humidity for 2 days to allow hepatocytes to form a confluent layer. On Day 3, hepatocytes were treated with either test compound or rifampin (20 μM, positive control for CYP3A induction) prepared in hepatocyte incubation media ((HIM, final concentrations: 1× William's Medium E, 0.1 μM dexamethasone, 1×ITS, 1×PSG). Treatment was performed for 72 hours with either 2 concentrations (2 μM or 10 μM) or a range of concentrations (0.001 μM to 100 μM) of the test compound to obtain full dose-response curve. Fresh media containing the relevant concentrations of the test compound was replaced every day until the samples were processed. After 72 hours of incubation, samples were processed for mRNA analysis using bDNA technology using manufacturer's instructions (Affymetrix, Fremont, Calif.). Cell viability was tested at the end of the experiment using MTT assay kit (Roche Diagnostics, Basel, Switzerland). Data was analyzed and presented as percent of control (POC) and Emax and EC50 obtained when appropriate, as described in Halladay, J. et al, 2012, An “all-inclusive” 96-well cytochrome P450 induction method: Measuring enzyme activity, mRNA levels, protein levels, and cytotoxicity from one well using cryopreserved human hepatocytes, Pharmacological and Toxicological Methods, 66:270-275.\nThe cytochrome P450 (CYP) is a well-known superfamily of enzymes that are responsible for the oxidative and reductive metabolic transformation of medications used in clinical practice. In addition, the CYP enzymes are commonly associated with causing many clinically relevant drug-drug interactions. Of the CYP enzymes, CYP3A4 is not only the most prevalent CYP enzyme in the liver and intestine, but is responsible for metabolism and elimination of approximately 50% of marketed drugs. In addition, CYP3A4 activity can be induced (or increased) or inhibited (decreased) in response to administration of certain drugs, thereby affecting concentrations of their own or certain concomitant drugs present in the body. […]", "units": {"CYP3A4 mRNA Induct Hu 10 uM POC": "%"}, "values": [{"smiles": "COc1cc([C@@H]2C[C@H]2c2ccccc2)c(F)cc1-n1c(=O)ccc2cc(S(=O)(=O)Nc3ccon3)ccc21", "note": "(atropisomer, axis not shown; (P)) [Example 8, (P)-1-(5-fluoro-2-methoxy-4-((1R,2R)-2-phenylcyclopropyl)phenyl)-N-(isoxazol-3-yl)-2-oxo-1,2-dihydroquinoline-6-sulfonamide]", "CYP3A4 mRNA Induct Hu 10 uM POC": 27.54}, {"smiles": "COc1cc([C@H]2C[C@@H]2C2CC2)c(F)cc1-n1c(=O)ccc2cc(S(=O)(=O)Nc3ccon3)ccc21", "note": "(atropisomer, axis not shown; (P)) [Example 31, (P)-1-(4-((1R,2S)-[1,1′-bi(cyclopropan)]-2-yl)-5-fluoro-2-methoxyphenyl)-N-(isoxazol-3-yl)-2-oxo-1,2-dihydroquinoline-6-sulfonamide]", "CYP3A4 mRNA Induct Hu 10 uM POC": 100.7}, {"smiles": "COc1cc([C@H]2C[C@@H]2C(F)(F)F)c(Cl)cc1-n1c(=O)ccc2cc(S(=O)(=O)Nc3cccnn3)ccc21", "note": "(single isomer, unassigned) [Example 15]", "CYP3A4 mRNA Induct Hu 10 uM POC": 69.11}, {"smiles": "COc1cc([C@@H]2C[C@H]2C(F)(F)F)ccc1-n1c(=O)ccc2cc(S(=O)(=O)Nc3ccon3)c(F)cc21", "note": "(atropisomer, axis not shown; (P)) [Example 47, (P)-7-fluoro-N-(isoxazol-3-yl)-1-(2-methoxy-4-((1R,2R)-2-(trifluoromethyl)cyclopropyl)phenyl)-2-oxo-1,2-dihydroquinoline-6-sulfonamide]", "CYP3A4 mRNA Induct Hu 10 uM POC": 14.245}, {"smiles": "COc1cc(C2(C(F)(F)F)CC2)c(Cl)cc1-n1c(=O)ccc2cc(S(=O)(=O)Nc3ccon3)ccc21", "note": "(atropisomer, axis not shown; (P)) [Example 24, (P)-1-(5-chloro-2-methoxy-4-(1-(trifluoromethyl)cyclopropyl)phenyl)-N-(isoxazol-3-yl)-2-oxo-1,2-dihydroquinoline-6-sulfonamide]", "CYP3A4 mRNA Induct Hu 10 uM POC": 100.7}, {"smiles": "COc1cc([C@@H]2C[C@H]2C(F)(F)F)c(Cl)cc1-n1c(=O)ccc2cc(S(=O)(=O)Nc3ncccn3)ccc21", "note": "(atropisomer, axis not shown; (P)) [Example 13, (P)-1-(5-chloro-2-methoxy-4-((1R,2R)-2-(trifluoromethyl)cyclopropyl)phenyl)-2-oxo-N-(pyrimidin-2-yl)-1,2-dihydroquinoline-6-sulfonamide]", "CYP3A4 mRNA Induct Hu 10 uM POC": 92.47}, {"smiles": "COc1cc([C@H]2C[C@@H]2C(F)(F)F)c(Cl)cc1-n1c(=O)ccc2cc(S(=O)(=O)Nc3ccon3)ccc21", "note": "(atropisomer, axis not shown; (P)) [Example 19, (P)-1-(5-chloro-2-methoxy-4-((1S,2S)-2-(trifluoromethyl)cyclopropyl)phenyl)-N-(isoxazol-3-yl)-2-oxo-1,2-dihydroquinoline-6-sulfonamide]", "CYP3A4 mRNA Induct Hu 10 uM POC": 85.5}, {"smiles": "COc1cc([C@H]2C[C@@H]2C(F)(F)F)c(C#N)cc1-n1c(=O)ccc2cc(S(=O)(=O)Nc3ccon3)ccc21", "note": "(atropisomer, axis not shown; (P)) [Example 37, (P)-1-(5-cyano-2-methoxy-4-((1S,2S)-2-(trifluoromethyl)cyclopropyl)phenyl)-N-(isoxazol-3-yl)-2-oxo-1,2-dihydroquinoline-6-sulfonamide]", "CYP3A4 mRNA Induct Hu 10 uM POC": 16.39}, {"smiles": "COc1cc([C@H]2C[C@@H]2C)c(F)cc1-n1c(=O)ccc2cc(S(=O)(=O)Nc3ccon3)ccc21", "note": "(atropisomer, axis not shown; (P)) [Example 7, (P)-1-(5-fluoro-2-methoxy-4-((1S,2S)-2-methylcyclopropyl)phenyl)-N-(isoxazol-3-yl)-2-oxo-1,2-dihydroquinoline-6-sulfonamide]", "CYP3A4 mRNA Induct Hu 10 uM POC": 41.2}, {"smiles": "COc1cc([C@H]2C[C@@H]2C(F)(F)F)ccc1-n1c(=O)ccc2cc(S(=O)(=O)Nc3ccon3)c(F)cc21", "note": "(atropisomer, axis not shown; (P)) [Example 48, (P)-7-fluoro-N-(isoxazol-3-yl)-1-(2-methoxy-4-((1S,2S)-2-(trifluoromethyl)cyclopropyl)phenyl)-2-oxo-1,2-dihydroquinoline-6-sulfonamide]", "CYP3A4 mRNA Induct Hu 10 uM POC": 54.02}, {"smiles": "COc1cc([C@@H]2C[C@H]2C)c(F)cc1-n1c(=O)ccc2cc(S(=O)(=O)Nc3ccon3)ccc21", "note": "(atropisomer, axis not shown; (P)) [Example 6, (P)-1-(5-fluoro-2-methoxy-4-((1R,2R)-2-methylcyclopropyl)phenyl)-N-(isoxazol-3-yl)-2-oxo-1,2-dihydroquinoline-6-sulfonamide]", "CYP3A4 mRNA Induct Hu 10 uM POC": 25.49}, {"smiles": "COc1cc([C@H]2C[C@@H]2C(F)(F)F)c(F)cc1-n1c(=O)ccc2cc(S(=O)(=O)Nc3ccon3)c(F)cc21", "note": "(single isomer, unassigned) [Example 46]", "CYP3A4 mRNA Induct Hu 10 uM POC": 53.03}, {"smiles": "COc1cc([C@H]2C[C@@H]2C(F)(F)F)c(C)cc1-n1c(=O)ccc2cc(S(=O)(=O)Nc3ncccn3)ccc21", "note": "(atropisomer, axis not shown; (P)) [Example 29, (P)-1-(2-methoxy-5-methyl-4-((1S,2S)-2-(trifluoromethyl)cyclopropyl)phenyl)-2-oxo-N-(pyrimidin-2-yl)-1,2-dihydroquinoline-6-sulfonamide]", "CYP3A4 mRNA Induct Hu 10 uM POC": 74.53}, {"smiles": "COc1cc([C@@H]2C[C@H]2C(F)(F)F)c(F)cc1-n1c(=O)ccc2cc(S(=O)(=O)Nc3ncco3)ccc21", "note": "(atropisomer, axis not shown; (P)) [Example 35, (P)-1-(5-fluoro-2-methoxy-4-((1R,2R)-2-(trifluoromethyl)cyclopropyl)phenyl)-N-(oxazol-2-yl)-2-oxo-1,2-dihydroquinoline-6-sulfonamide]", "CYP3A4 mRNA Induct Hu 10 uM POC": 53.28}, {"smiles": "COc1cc([C@H]2C[C@@H]2C(F)(F)F)c(C)cc1-n1c(=O)ccc2cc(S(=O)(=O)Nc3ccon3)ccc21", "note": "(single isomer, unassigned) [Example 27]", "CYP3A4 mRNA Induct Hu 10 uM POC": 64.14}, {"smiles": "COc1cc([C@@H]2C[C@H]2C(F)(F)F)c(F)cc1-n1c(=O)ccc2cc(S(=O)(=O)Nc3cccnn3)ccc21", "note": "(atropisomer, axis not shown; (P)) [Example 16, (P)-1-(5-fluoro-2-methoxy-4-((1R,2R)-2-(trifluoromethyl)cyclopropyl)phenyl)-2-oxo-N-(pyridazin-3-yl)-1,2-dihydroquinoline-6-sulfonamide]", "CYP3A4 mRNA Induct Hu 10 uM POC": 27.11}, {"smiles": "O=c1ccc2cc(S(=O)(=O)Nc3ccon3)ccc2n1-c1cc(F)c([C@H]2C[C@@H]2C(F)(F)F)cc1OC1CC1", "note": "(single isomer, unassigned) [Example 41]", "CYP3A4 mRNA Induct Hu 10 uM POC": 13.21}, {"smiles": "COc1cc([C@H]2C[C@@H]2C(F)(F)F)c(F)cc1-n1c(=O)ccc2cc(S(=O)(=O)Nc3ccon3)ccc21", "note": "(atropisomer, axis not shown; (P)) [Example 4, (P)-1-(5-fluoro-2-methoxy-4-((1S,2S)-2-(trifluoromethyl)cyclopropyl)phenyl)-N-(isoxazol-3-yl)-2-oxo-1,2-dihydroquinoline-6-sulfonamide]", "CYP3A4 mRNA Induct Hu 10 uM POC": 15.9}, {"smiles": "COc1cc([C@H]2C[C@@H]2C(F)(F)F)c(F)cc1-n1c(=O)ccc2cc(S(=O)(=O)Nc3cccnn3)ccc21", "note": "(atropisomer, axis not shown; (P)) [Example 17, (P)-1-(5-fluoro-2-methoxy-4-((1S,2S)-2-(trifluoromethyl)cyclopropyl)phenyl)-2-oxo-N-(pyridazin-3-yl)-1,2-dihydroquinoline-6-sulfonamide]", "CYP3A4 mRNA Induct Hu 10 uM POC": 37.04}]}]}
